The source made the active and inactive calls.
Tests used:
[1] = molecular target: Mitogen-activated protein kinase 10 (Homo sapiens, UniProt P53779); assay: Dose response biochemical screening assay for inhibitors of c-Jun N-Terminal Kinase 3 (JNK3). [Related pubchem assays: 746 ]
[2] = human group III sPLA2 inhibitors, dose response, biochemical, QFRET, IC50 (AID 743457);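 also: green fluorescence rise as the enzyme cleaves BODIPY PC-A2 in liposomes; potency for inhibition of the enzyme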
[3] = CEM21 lymphoblast cell cytotoxicity, dose response, cytotoxicity control for viral fusion inhibitor project, CellTiter-Glo luminescence, cherry-picked (AID 652042); format: functional, cell-based;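 also: potency for signal decrease meaning cytotoxicity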
[4] = inhibitors of HIV Env-driven cell fusion, dose response, cherry-pick (AID 652057); format: functional, cell-based
[5] = inhibitors of clade B AD8 Env fusion, dose response, cell-based, cherry-pick (AID 652062); format: functional;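 also: luciferase signal from cell-cell fusion driven by HIV-1 clade B AD8 Env; potency is for inhibitors of fusion seen as a drop in luminescence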
[6] = off-target signal loss in HeLa-CEM21 co-culture – HeLa F-luc CTL cells, cherry-picked, counter-screen for HIV-1 Env fusion inhibitor project, dose response (AID 652040); format: functional, cell-based;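 also: potency for signal decrease marking cytotoxic or nonspecific inhibition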
[7] = ZM109 Env clade C HIV-1 fusion inhibitors, dose response, HeLa effector, CEM target cells, luciferase, cherry-pick (AID 652058); format: functional, cell-based
[8] = molecular target: T1, DNA repair protein RAD52 homolog (Homo sapiens, UniProt P43351); format: functional, biochemical
T1 sequence (P43351 whole entry): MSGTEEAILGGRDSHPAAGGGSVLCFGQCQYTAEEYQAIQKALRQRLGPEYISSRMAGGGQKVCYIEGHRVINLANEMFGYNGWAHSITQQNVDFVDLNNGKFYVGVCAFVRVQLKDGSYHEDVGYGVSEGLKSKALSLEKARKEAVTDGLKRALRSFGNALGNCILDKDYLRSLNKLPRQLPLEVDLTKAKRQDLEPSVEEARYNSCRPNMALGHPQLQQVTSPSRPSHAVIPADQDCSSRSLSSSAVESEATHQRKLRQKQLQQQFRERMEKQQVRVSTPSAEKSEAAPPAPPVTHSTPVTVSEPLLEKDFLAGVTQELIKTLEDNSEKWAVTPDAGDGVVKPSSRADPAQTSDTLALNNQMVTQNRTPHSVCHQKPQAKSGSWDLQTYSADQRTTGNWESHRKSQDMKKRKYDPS

[9] = molecular target: T2, DNA repair and recombination protein RAD54-like (Homo sapiens, UniProt Q92698); assay: inhibitors of human RAD54 branch migration, confirmation, biochemical, fluorescence, cherry-picked samples, dose series (AID 651657); format: functional
T2 sequence (Q92698 whole entry): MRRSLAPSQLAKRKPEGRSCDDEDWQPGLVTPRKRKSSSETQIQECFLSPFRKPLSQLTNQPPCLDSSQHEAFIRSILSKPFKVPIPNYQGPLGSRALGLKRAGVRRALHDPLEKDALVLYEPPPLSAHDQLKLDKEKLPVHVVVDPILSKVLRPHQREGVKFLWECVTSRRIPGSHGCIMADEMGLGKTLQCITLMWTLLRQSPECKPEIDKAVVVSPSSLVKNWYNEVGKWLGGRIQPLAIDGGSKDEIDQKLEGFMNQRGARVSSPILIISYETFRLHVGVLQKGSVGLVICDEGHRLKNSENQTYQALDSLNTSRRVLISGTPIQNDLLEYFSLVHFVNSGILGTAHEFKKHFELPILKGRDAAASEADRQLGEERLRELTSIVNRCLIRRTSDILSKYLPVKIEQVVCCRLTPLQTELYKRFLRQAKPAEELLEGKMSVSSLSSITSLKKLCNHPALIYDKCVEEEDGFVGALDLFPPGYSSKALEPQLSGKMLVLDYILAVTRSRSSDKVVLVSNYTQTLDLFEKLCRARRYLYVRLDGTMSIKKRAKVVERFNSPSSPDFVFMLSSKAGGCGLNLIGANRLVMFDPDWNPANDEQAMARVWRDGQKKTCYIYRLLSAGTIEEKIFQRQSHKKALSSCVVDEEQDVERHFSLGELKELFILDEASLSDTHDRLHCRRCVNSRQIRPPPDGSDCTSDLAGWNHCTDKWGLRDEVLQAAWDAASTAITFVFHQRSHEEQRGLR

Prothrombin = Prothrombin (Homo sapiens, UniProt P00734); assay: Thrombin 1536 HTS Dose Response Confirmation. [Related pubchem assays: 1046 (Thrombin 1536 HTS; hits were confirmed in this assay)]; format: functional
cells [10] = format: functional, cell-based
cells [11] = format: functional, cell-based; remark: listed apart in the source
[12] = inhibitors of intracellular T. cruzi replication, confirmation, NIH3T3 host cells, beta-gal luminescence (AID 2044); format: functional, cell-based;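 also: intracellular parasites grown in NIH/3T3 mouse fibroblasts as host cells; luminescent beta-galactosidase reporter signal from transgenic T. cruzi replicating inside host cells; inhibitors lower the luminescence signal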
[13] = HEp-2 cell cytotoxicity, dose response, cytotoxicity control for RSV inhibitor project, HTS (AID 2410); format: functional; details: human respiratory syncytial virus
[14] = Luminescence Cell-Based Dose Response HTS to Identify Inhibitors of 5'UTR Stem-Loop Driven Prion Protein mRNA Translation in H4 Neuroglioblastoma Cells. [Related pubchem assays: 1827 (Project Summary), 1813 (Primary HTS)]; format: functional
[15] = inhibitors of SNCA 5'UTR-driven reporter translation, confirmation, H4 neuroglioma cells, luminescence (AID 1988); format: functional, cell-based
[16] = inhibitors of firefly luciferase expression or activity, dose response, H4 neuroglioma cells, luminescence (AID 1990); format: functional, cell-based
[17] = cytotoxicity toward NIH3T3 fibroblasts, dose response, counter-screen, cell-based, ATP luminescence, mouse fibroblasts (AID 2010); format: functional;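 also: cells exposed to compound for about 90 hours before reading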
[18] = Jurkat T cell cytotoxicity, dose response, cytotoxicity control for P. falciparum gametocyte viability project, luminescence (AID 1117277); format: functional, cell-based;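 also: potency reflects loss of cellular ATP meaning fewer viable cells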
[19] = P. falciparum late gametocyte killing, dose response, luminescence (AID 1117278); format: functional, cell-based;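 also: gametocytes exposed to compound for 24 hours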

Mitogen-activated protein kinase 10, sequence (P53779 whole entry): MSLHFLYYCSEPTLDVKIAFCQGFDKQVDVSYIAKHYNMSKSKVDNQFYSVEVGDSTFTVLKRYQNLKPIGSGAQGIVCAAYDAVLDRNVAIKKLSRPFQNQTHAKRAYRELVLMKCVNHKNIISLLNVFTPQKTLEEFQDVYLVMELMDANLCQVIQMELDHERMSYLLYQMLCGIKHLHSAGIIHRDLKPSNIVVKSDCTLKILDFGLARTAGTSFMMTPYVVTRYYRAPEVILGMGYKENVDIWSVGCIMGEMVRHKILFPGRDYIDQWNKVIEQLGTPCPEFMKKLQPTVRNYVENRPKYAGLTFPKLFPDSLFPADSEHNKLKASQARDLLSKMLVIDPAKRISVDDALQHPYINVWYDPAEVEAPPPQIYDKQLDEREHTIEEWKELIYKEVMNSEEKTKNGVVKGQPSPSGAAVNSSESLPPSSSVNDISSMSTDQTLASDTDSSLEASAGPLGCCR

For CCOc1ccccc1NC(=O)COc1cccc(-n2cnnn2)c1, the IC50 [1] was 69.2 µM (not active).
For FC(F)(F)c1cnc(NN=C(S)Nc2cccnc2)c(Cl)c1, the IC50 [2] was > 122 µM (inactive).
With COc1ccc(CCC(C)NCc2ccc(Cl)c(Cl)c2)cc1 (stereo unspecified) the AC50 [3] was 59.6 µM (active), the AC50 [4] was 5.33 µM (active) and the AC50 [5] was 6.23 µM (active). The AC50 [6] was 8.87 µM (active) and the AC50 [7] was 7.63 µM (active).
With Cc1cccc(-c2nc(NCCCN(C)C)c3ccccc3n2)c1 the AC50 [8] was 9.69 µM (active) and the AC50 [9] was 21.4 µM (active).
For Cc1cc(C)c2sc(NNC(=O)C3COc4ccccc4O3)nc2c1 (stereo unspecified), the IC50 [2] was 26.2 µM (inactive).
For c1cc2cc(CNc3nc(NCC4CC4)nc4ccsc34)ccc2o1, the AC50 [3] was 35.9 µM (active), the AC50 [4] was 4.73 µM (active) and the AC50 [5] was 22.5 µM (active). The AC50 [6] was 8.05 µM (active) and the AC50 [7] was 33.1 µM (active).
In the case of Oc1ccc2c3c1O[C@H]1c4[nH]c5c(c4CC4(O)C(C2)N(CC2CC2)CCC314)CC1(O)[C@H]2Cc3ccc(O)c4c3[C@@]1(CCN2CC1CC1)C5O4 (stereo partly specified), the AC50 [8] was 11.1 µM (active).
For CCC(C)NCCOc1ccc(C)cc1[N+](=O)[O-] (stereo unspecified), the IC50 (Prothrombin) was > 50 µM (not active), the EC50 (cells [10]) was > 350 µM (not active) and the EC50 (cells [11]) was > 350 µM (not active).
For O=C(c1ccccc1)n1nc(-c2ccccc2)nc1NCc1ccco1, the IC50 (Prothrombin) was 1.72 µM (active).
In the case of CCc1cccc2c1Sc1ccccc1CC2N1CCNCC1 (stereo unspecified), the EC50 [12] was 3.99 µM (active), the AC50 [8] was 18 µM (active) and the CC50 [13] was 13 µM (active). The EC50 [14] was > 120 µM (not active), the EC50 [15] was > 120 µM (not active) and the EC50 [16] was > 120 µM (not active). For the same compound, the EC50 [17] was 9.15 µM (active).
For COC(=O)c1ccccc1NC(=O)COC(=O)c1ccco1, the IC50 [1] was 56.7 µM (not active).
With COc1ccc(-n2cc(-c3ccccc3)nc2S)cc1 the IC50 [2] was > 122 µM (inactive).
With COc1ccc(COC(=O)C2=C(C)NC(=O)NC2c2ccc(O)c(OC)c2)cc1 (stereo unspecified) the IC50 [1] was 33.8 µM (not active).
For CC(C)Oc1ccc(C2CC(=O)N(c3cccc(C(=O)O)c3)C2=O)cc1 (stereo unspecified), the IC50 [18] was > 83.3 µM (inactive) and the IC50 [19] was > 109 µM (inactive).
In the case of CC(C)(C)C(=O)N1CCN(c2ccc(Cl)cc2[N+](=O)[O-])CC1, the IC50 [18] was > 83.3 µM (inactive) and the IC50 [19] was > 109 µM (inactive).
In the case of O=C(NC(Cc1ccc(O)cc1)C(=O)O)c1ccco1 (stereo unspecified), the IC50 [18] was > 83.3 µM (inactive) and the IC50 [19] was > 109 µM (inactive).

Source: ChEMBL document CHEMBL1201862, “PubChem BioAssay data set” (2004)
